Among the data in PubChem BioAssay (NCI) are TGI and GI50 values, retold here.

Among the test systems are UACC-257 melanoma; SW-620 colon; RPMI-8226 leukemia; MALME-3M melanoma; LOX IMVI melanoma; COLO 205 colon; KM12 colon; SN12C renal; SNB-19 CNS; SF-539 CNS.
What all share (test): inhibition of tumour cell growth, NCI panel, 48 h

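Assay format: 96-well plates, 48-hour exposure. The concentration for 50% growth inhibition is given as GI50. Definition used: TGI = concentration required for complete inhibition of growth.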 Bounds are passed on as bounds.

As to `COC[C@H](Cc1ccccc1)N=Cc1ccccc1`, the TGI in the assay with UACC-257 melanoma, in the assay on SW-620 colon, with RPMI-8226 leukemia, in the assay on MALME-3M melanoma, in the assay with LOX IMVI melanoma and in the assay on COLO 205 colon was over 100 µM in each case. Also, the TGI in the assay on KM12 colon, with SN12C renal and in the assay with SNB-19 CNS was over 100 µM each time.
For `CCOC(=O)C1C(=O)C=C(c2cc(C)ccc2O)CC1c1cccc(Br)c1` (stereo not drawn), the TGI in the assay with UACC-257 melanoma was 38 µM; in the assay on SW-620 colon, over 100 µM; in the assay with RPMI-8226 leukemia, 33.8 µM; in the assay with MALME-3M melanoma, 42.4 µM; in the assay with LOX IMVI melanoma, 32.1 µM; in the assay on COLO 205 colon, 31.1 µM. Besides, the TGI is 47.4 µM in the assay with KM12 colon, 35.2 µM with SF-539 CNS, 33.1 µM in the assay with SN12C renal and 32.5 µM with SNB-19 CNS.
On to `COc1cc2c(oc(=O)c3c4oc([Si](C)(C)C)cc4cc(OC)c23)c2cccc(O)c12`, for which the TGI with UACC-257 melanoma, in the assay with SW-620 colon, in the assay on RPMI-8226 leukemia, with MALME-3M melanoma, with LOX IMVI melanoma and in the assay with COLO 205 colon was over 100 µM in each case. The TGI in the assay with KM12 colon, with SF-539 CNS, in the assay with SN12C renal and with SNB-19 CNS was over 100 µM each time.
Turning to `CC(C)Oc1c(O)c2c3c(oc(=O)n3C=CC2c2ccccc2F)c1OC(C)C` (stereo not drawn), the TGI in the assay with UACC-257 melanoma is over 100 µM; in the assay with SW-620 colon, over 100 µM; in the assay with RPMI-8226 leukemia, 51.9 µM; in the assay with MALME-3M melanoma it was over 100 µM; in the assay on LOX IMVI melanoma, 33.1 µM; in the assay on COLO 205 colon, 36.6 µM. For the same compound, the TGI in the assay on KM12 colon was over 100 µM; in the assay on SF-539 CNS, 52.6 µM; with SN12C renal, over 100 µM; in the assay on SNB-19 CNS, over 100 µM.
In the case of `O=C1NC(N2CCCC(CO)C2)=N/C1=C\c1ccc(O)cc1` (stereo not drawn), the TGI in the assay with UACC-257 melanoma, with SW-620 colon, in the assay with RPMI-8226 leukemia, with MALME-3M melanoma, with LOX IMVI melanoma and with COLO 205 colon was over 100 µM throughout. For the same compound, the TGI in the assay with KM12 colon, in the assay on SF-539 CNS, in the assay on SN12C renal and in the assay on SNB-19 CNS was over 100 µM in each case.
For `CCOc1c(OC)cc(CNNc2nccs2)cc1OC`, the TGI in the assay with UACC-257 melanoma, with SW-620 colon, in the assay with RPMI-8226 leukemia, in the assay on MALME-3M melanoma, with LOX IMVI melanoma and with COLO 205 colon was over 100 µM each time. Further, the TGI with KM12 colon, with SF-539 CNS, with SN12C renal and with SNB-19 CNS was over 100 µM in each case.
In the case of `C[Si](C)(C)C1=C2C(=O)c3ccccc3C(=O)C2=C([Si](C)(C)C)[C@@H]2CCCC[C@H]12`, the TGI in the assay on UACC-257 melanoma, in the assay on SW-620 colon, with RPMI-8226 leukemia, in the assay on MALME-3M melanoma, in the assay with LOX IMVI melanoma and in the assay with COLO 205 colon was over 100 µM throughout. Also, the TGI in the assay on SF-539 CNS, with SN12C renal and in the assay on SNB-19 CNS was over 100 µM throughout.
Turning to `Cc1[nH]c(=O)nc2c1C(=O)N(C(C)C)C(NC(C)C)S2` (stereo not drawn), the TGI in the assay with UACC-257 melanoma, in the assay on SW-620 colon, in the assay with RPMI-8226 leukemia, with MALME-3M melanoma, in the assay with LOX IMVI melanoma and in the assay on COLO 205 colon was over 100 µM in each case. Further, the TGI in the assay with KM12 colon, in the assay with SF-539 CNS, in the assay with SN12C renal and in the assay with SNB-19 CNS was over 100 µM in each case.
Turning to `COc1cc(OC)cc(N(C)Cc2cnc3nc(N)nc(N)c3c2C)c1`, the TGI in the assay on UACC-257 melanoma, with SW-620 colon, in the assay with RPMI-8226 leukemia, in the assay with MALME-3M melanoma, with LOX IMVI melanoma and with COLO 205 colon was over 100 µM throughout. Also, the TGI is over 100 µM in the assay with KM12 colon, 4.96 µM in the assay with SF-539 CNS, over 100 µM with SN12C renal and over 100 µM in the assay on SNB-19 CNS.
For the compound `C[N+](C)([O-])Cc1cccc(NC(=O)c2ccc(C(=O)Nc3cccc(C[N+](C)(C)[O-])c3)cc2)c1`, the TGI with UACC-257 melanoma, in the assay with SW-620 colon, in the assay on RPMI-8226 leukemia, in the assay on MALME-3M melanoma, in the assay on LOX IMVI melanoma and in the assay on COLO 205 colon was over 100 µM in each case. Besides, the TGI in the assay with KM12 colon, in the assay with SF-539 CNS, with SN12C renal and in the assay on SNB-19 CNS was over 100 µM in each case.
Regarding `CC(=O)CC(=O)Nn1c(-c2cccs2)nc2ccc(I)cc2c1=O`, the TGI in the assay with UACC-257 melanoma is over 100 µM; in the assay with SW-620 colon it was over 100 µM; with RPMI-8226 leukemia, over 100 µM; in the assay on MALME-3M melanoma it was over 93.2 µM; in the assay with LOX IMVI melanoma, over 90 µM; in the assay with COLO 205 colon, over 100 µM. Further, the TGI in the assay on KM12 colon was over 100 µM; with SF-539 CNS it was 34.4 µM; in the assay on SN12C renal it was over 100 µM; with SNB-19 CNS, over 100 µM. For the same compound, the GI50 in the assay on SF-539 CNS is 13.8 µM.
`CC(C)(C)C(=O)C(C#N)C(=O)C(C)(C)C`: the TGI with UACC-257 melanoma, with SW-620 colon, in the assay with RPMI-8226 leukemia, in the assay with MALME-3M melanoma, in the assay on LOX IMVI melanoma and with COLO 205 colon was over 100 µM each time. Further, the TGI with KM12 colon, with SF-539 CNS, in the assay with SN12C renal and in the assay with SNB-19 CNS was over 100 µM each time.
For the compound `CN1CCN(c2nc3c(c(=O)n(C)c(=O)n3C)n2C)CC1`, the TGI in the assay with UACC-257 melanoma, with SW-620 colon, with RPMI-8226 leukemia, with MALME-3M melanoma, with LOX IMVI melanoma and in the assay on COLO 205 colon was over 100 µM in each case. Also, the TGI in the assay with KM12 colon, in the assay with SN12C renal and in the assay on SNB-19 CNS was over 100 µM throughout.
